Measurements taken from patent publication US5605929A, “Methods and compositions for inhibiting 5α-reductase activity” (priority 1995, dated 1997).
Several values for one entry are separate records, joined by “and”; a condition that tells them apart may be missing. Equal values may be shown once.

Columns and labels:
[1] = target: T1, 5α-Reductase of Rat Liver Microsomes (Rattus norvegicus, UniProt P24008); experiment: [3H]4-MA binding assay, rat liver microsomes (tea catechins)
T1 sequence (P24008 1-259): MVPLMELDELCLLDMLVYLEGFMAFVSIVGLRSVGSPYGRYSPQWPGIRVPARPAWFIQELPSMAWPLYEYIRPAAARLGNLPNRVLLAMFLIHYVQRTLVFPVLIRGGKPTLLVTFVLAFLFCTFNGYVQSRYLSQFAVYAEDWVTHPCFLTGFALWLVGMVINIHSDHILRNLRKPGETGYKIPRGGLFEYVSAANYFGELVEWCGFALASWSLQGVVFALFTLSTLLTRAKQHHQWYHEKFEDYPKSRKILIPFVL
Outline: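 Microsomes from adult female Sprague-Dawley rat liver or Rat-1A cells expressing human 5α-reductase, 25 μg protein per reaction. Incubation 30–60 min at 0 °C; microsome-bound [3H]4-MA collected on glass-fibre filters and counted. Duplicate or triplicate determinations, values based on reaction rate.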

[2] = target: T2, human 5α-reductase isozyme type 2 (Homo sapiens, UniProt P31213); experiment: 4-[14C]testosterone reduction, human type 2 isozyme; type: biochemical; conditions: for inhibition at 1 µM / inhibition at 3 µM / inhibition at 10 µM / inhibition at 30 µM / inhibition at 100 µM: read-out: % Inhibition of 5α-reduction
T2 construct: expressed in transfected cells; host or cells: Rat-1A cells infected with pMV7 retrovirus; microsomes of these cells
T2 sequence (P31213 1-254): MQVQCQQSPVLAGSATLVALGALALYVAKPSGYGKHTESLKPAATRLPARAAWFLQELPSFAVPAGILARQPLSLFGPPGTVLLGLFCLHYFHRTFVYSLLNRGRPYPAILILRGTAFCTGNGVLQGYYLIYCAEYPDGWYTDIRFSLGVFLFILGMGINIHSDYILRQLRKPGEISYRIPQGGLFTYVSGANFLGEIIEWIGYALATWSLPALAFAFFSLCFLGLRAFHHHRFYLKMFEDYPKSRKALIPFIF
Description: (§1) The cDNAs for the human type 1 and 2 5α-reductases were isolated from human prostate λZAP II™ cDNA libraries using the published sequence of the 5α-reductases, PCR™ and standard library screening techniques (Sambrook et al., 1989). The type 1 and 2 cDNAs correspond to nucleotides 31-870 and 28-829, respectively, of the published sequences for these 5α-reductases (Anderson and Russell, 1990; Anderson et al., 1991). The type 1 and 2 cDNAs were subcloned into the retroviral expression vector pMV7 (Kirschmeier et al., 1988) and high titer stocks of virus containing the type 1 and 2 cDNAs were generated using the packaging cells BOSC 23 293 (Kirschmeier et al., 1988). Rat.-1A cells (Pear et al., 1993) were infected with virus (Topp, 1981) and cells containing integrated retrovirus were selected for G418-SO4 resistance, (Brown and Scott, 1987).
(§2) Microsomes were prepared as described previously (Liang and Liao, 1992) from the liver of adult Sprague-Dawley female rats or Rat-1A cells expressing a specific type of human 5α-reductase. […] The data presented was based on the rate of reaction.
(§3) The reaction was started by the addition of 25 μl of microsomes (25 μg protein). The mixture was incubated at 37° for 30-60 min and stopped by addition of 0.5 ml of ethyl acetate and mixing for 1 min. The organic solvent extract was removed under vacuum.

[3] = target: T3, human 5α-reductase isozyme type 1 (Homo sapiens, UniProt P18405); experiment: 4-[14C]testosterone reduction, human type 1 isozyme; type: biochemical; conditions: read-out: % Inhibition of 5α-reduction
T3 construct: expressed in transfected cells; host or cells: Rat-1A cells infected with pMV7 retrovirus; microsomes of these cells
T3 sequence (P18405 1-259): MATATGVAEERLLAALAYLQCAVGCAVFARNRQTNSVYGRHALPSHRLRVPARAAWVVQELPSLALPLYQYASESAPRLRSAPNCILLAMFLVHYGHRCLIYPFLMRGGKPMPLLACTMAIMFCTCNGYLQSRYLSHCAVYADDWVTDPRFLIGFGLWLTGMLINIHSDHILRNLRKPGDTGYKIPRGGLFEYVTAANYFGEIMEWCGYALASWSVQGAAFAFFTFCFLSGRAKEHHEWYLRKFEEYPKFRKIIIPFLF
Description: as §1, §2, §3

[4] = tested on: human prostate cancer (PC3 and LNCaP) cells; experiment: 5α-reduction of testosterone by human prostate cancer cells; type: cell-based
[5] = target: T4, rat small intestinal sucrase (Rattus norvegicus, UniProt P23739); conditions: cited from earlier work
T4 construct: rat small intestinal sucrase and maltase; host or cells: rat small intestine
T4 sequence (P23739 1014-1841 limits assumed): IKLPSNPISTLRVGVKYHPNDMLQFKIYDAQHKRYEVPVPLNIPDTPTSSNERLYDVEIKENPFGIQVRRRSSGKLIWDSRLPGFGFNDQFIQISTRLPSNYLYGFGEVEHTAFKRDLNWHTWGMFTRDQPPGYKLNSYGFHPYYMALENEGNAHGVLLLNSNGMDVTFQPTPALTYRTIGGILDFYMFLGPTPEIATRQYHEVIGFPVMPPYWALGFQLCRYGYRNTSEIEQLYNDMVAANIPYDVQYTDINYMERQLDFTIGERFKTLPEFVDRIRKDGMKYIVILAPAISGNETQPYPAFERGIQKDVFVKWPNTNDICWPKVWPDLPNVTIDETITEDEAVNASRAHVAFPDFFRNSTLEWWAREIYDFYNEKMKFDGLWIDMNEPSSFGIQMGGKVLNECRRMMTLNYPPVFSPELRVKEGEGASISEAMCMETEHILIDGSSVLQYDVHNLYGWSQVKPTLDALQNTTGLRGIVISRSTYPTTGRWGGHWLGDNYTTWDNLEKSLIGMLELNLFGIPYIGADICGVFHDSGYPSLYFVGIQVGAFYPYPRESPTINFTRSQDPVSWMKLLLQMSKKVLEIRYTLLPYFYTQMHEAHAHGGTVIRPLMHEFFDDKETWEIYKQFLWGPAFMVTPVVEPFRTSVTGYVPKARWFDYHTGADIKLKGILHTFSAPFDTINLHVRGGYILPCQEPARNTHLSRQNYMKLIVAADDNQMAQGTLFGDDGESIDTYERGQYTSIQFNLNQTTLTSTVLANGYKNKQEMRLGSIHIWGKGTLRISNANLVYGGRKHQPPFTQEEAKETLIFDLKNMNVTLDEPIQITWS
T4 sequence (P23739 2-1013 partner limits assumed): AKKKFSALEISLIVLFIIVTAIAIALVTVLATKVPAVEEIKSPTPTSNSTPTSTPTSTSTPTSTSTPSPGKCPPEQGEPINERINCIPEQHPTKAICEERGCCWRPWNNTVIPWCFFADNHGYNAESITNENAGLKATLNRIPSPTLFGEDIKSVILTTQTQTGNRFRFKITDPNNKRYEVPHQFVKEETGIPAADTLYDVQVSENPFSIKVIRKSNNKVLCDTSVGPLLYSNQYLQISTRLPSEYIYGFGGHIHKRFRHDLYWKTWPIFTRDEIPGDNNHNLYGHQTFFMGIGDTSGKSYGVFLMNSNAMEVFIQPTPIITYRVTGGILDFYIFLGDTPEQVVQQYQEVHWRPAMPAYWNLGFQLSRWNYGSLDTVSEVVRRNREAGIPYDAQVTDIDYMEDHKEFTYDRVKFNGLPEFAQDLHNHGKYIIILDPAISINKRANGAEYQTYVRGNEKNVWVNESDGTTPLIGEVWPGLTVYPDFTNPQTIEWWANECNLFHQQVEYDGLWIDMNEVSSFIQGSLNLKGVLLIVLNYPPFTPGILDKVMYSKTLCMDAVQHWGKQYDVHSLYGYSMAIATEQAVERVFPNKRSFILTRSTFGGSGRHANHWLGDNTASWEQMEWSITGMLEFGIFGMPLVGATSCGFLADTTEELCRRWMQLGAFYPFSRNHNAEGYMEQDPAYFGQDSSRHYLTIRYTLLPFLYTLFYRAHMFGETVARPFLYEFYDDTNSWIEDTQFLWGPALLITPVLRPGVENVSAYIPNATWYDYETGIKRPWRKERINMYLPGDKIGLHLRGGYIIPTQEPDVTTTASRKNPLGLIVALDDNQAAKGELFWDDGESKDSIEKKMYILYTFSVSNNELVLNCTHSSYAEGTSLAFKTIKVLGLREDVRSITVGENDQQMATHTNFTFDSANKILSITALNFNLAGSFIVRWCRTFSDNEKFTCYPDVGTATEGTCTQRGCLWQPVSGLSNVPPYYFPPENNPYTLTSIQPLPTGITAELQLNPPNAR

[6] = tested on: ventral prostate and preputial organ
Description: Male Sprague-Dawley rats, 60±5 g body weight, were used. Each group had 6 rats, and all were castrated.

[7] = target: T2, human 5α-reductase isozyme type 2; experiment: [3H]4-MA binding, human type 2 isozyme expressed in Rat-1A cells; conditions: read-out: % Inhibition of [^3 H]4-MA binding
Description: as §1, §2
(§4) [^3 H]4-MA binding assay were described in detail previously (Liang and Liao, 1992; Liang et al., 1983). […] The reaction was started by the addition of 25 μl of microsomes (25 μg protein). After 30-60 min incubation at 0° C., the [^3 H]4-MA bound to microsomes was collected on a Whatman GF/F glass fiber, washed and radioactivity determined (Liang and Liao, 1992).

[8] = target: T3, human 5α-reductase isozyme type 1; experiment: [3H]4-MA binding, human type 1 isozyme expressed in Rat-1A cells; conditions: read-out: % Inhibition of [^3 H]4-MA binding
Description: as §1, §2, §4

[9] = tested on: 17β-steroid dehydrogenase; experiment: 4-Androstenedione formation from [3H]testosterone by PC-3 cells (17β-steroid dehydrogenase); type: cell-based, human
[10] = tested on: PC-3; experiment: 5α-DHT formation from [3H]testosterone by PC-3 cells; type: cell-based, human; conditions: Homo sapiens, PC-3, read-out: 5α-DHT formed (% of control)
[11] = target: T1, 5α-Reductase of Rat Liver Microsomes
[12] = read-out: % Inhibition of [^3 H]4-MA binding

Row | Compound | inhibition at 1 µM [2] [%] | inhibition at 3 µM [2] [%] | inhibition at 10 µM [2] [%] | inhibition at 30 µM [2] [%] | inhibition at 100 µM [2] [%] | inhibition at 1 µM [3] [%] | inhibition at 3 µM [3] [%] | inhibition at 10 µM [3] [%] | inhibition at 30 µM [3] [%] | 5α-DHT production by human prostate cancer cells [4] | reduction of weights of ventral prostate and preputial organ ([6]; 5 mg ip daily, 14 days) [%] | general health / organ appearance ([6]; rat, in vivo) | inhibition at 1 µM [7] [%] | inhibition at 3 µM [7] [%] | inhibition at 10 µM [7] [%] | inhibition at 30 µM [7] [%] | inhibition at 100 µM [7] [%] | inhibition at 1 µM [8] [%] | inhibition at 3 µM [8] [%] | inhibition at 10 µM [8] [%] | further results
1 | O=C(O[C@@H]1Cc2c(O)cc(O)cc2O[C@@H]1c1cc(O)c(O)c(O)c1)c1cc(O)c(O)c(O)c1 [EGCG, (-)Epigallocatechin-3-gallate] | < 10 | < 10 | < 10 | < 10 | 73 | 22 | 23 | 34 | 89 | reduced 5α-DHT production | 10 to 35 | appeared to be as healthy as rats in other groups | < 10 | 12 | 55 | 72 | 89 | 29 | 47 | 77 | IC50 [1]: 3 µM; inhibition at 5 µM [1, 12]: 61%; inhibition at 10 µM [1, 12]: 74%; inhibition at 20 µM [1, 12]: 79%; inhibition at 40 µM [1, 12]: 88%; inhibition at 200 µM [1, 12]: 93%; activity on type 2 isozyme ([2]; enzymatic assay, concentrations below 30 μM for ECG/EGCG): did not inhibit the Type 2 isozyme; inhibition at 100 µM [3]: 98%; IC50 [5]: 50 to 500 µM; reduction of body weight increase ([6]; 5 mg ip daily, 14 days): about 35%; fat content under the skin ([6]; rat, in vivo): appeared less; inhibition at 30 µM [8]: 88%; inhibition at 100 µM [8]: 86%
2 | CCCCC/C=C\C/C=C\C/C=C\CCCCC(=O)O [γ-Linolenic acid, γ-linolenic acid] | 30 | 48 | 60 | 88 | 99 | 31 | 52 | 89 | 99 | can inhibit the conversion of testosterone to 5α-DHT | 10 to 35 | appeared to be as healthy as rats in other groups | 22 | 49 | 63 | 72 | 88 | 20 | 54 | 65 | 4-Androstendione formed (% of control) ([9]; 1 μM): 102 ± 6 % of control; 4-Androstendione formed (% of control) ([9]; 5 μM): 110 ± 1 % of control; 4-Androstendione formed (% of control) ([9]; 20 μM): 99 ± 2 % of control; effect on metabolism of testosterone to 4-androstenedione (17β-steroid dehydrogenase) ([9]; words): did not affect; IC50 ([4]; Homo sapiens, LNCaP, read-out: IC50 with the prostate cancer cells): 10 ± 5 µM; effect on body weight increase ([6]; 5 mg ip daily, 14 days): not EC or γ-LA; inhibition at 30 µM [8]: 79%; inhibition at 100 µM [8]: 85%; activity at 1 µM ([10]; 1 μM): 98 ± 6%; activity at 5 µM ([10]; 5 μM): 50 ± 3%; activity at 20 µM ([10]; 20 μM): 2 ± 2%; extent of inhibition by 10 μM γ-LA [11]: 93% and 52% and 88%; inhibition before removal of free γ-LA [11]: 78%; maximal binding of [^3 H]4-MA [11]: 0.45 pmol/10 μg protein and 0.40 pmol/10 μg protein; onset of inhibition [11]: within a minute; inhibition after microsomes reisolated to remove free γ-LA ([11]; reversibility test): 63%
